Reference: publication PMC7673538 (PLoS Biology, 2020)

System: CV-A24
Experiment: microbe, parasite or virus in culture
Format: cell-based, coxsackievirus A24
Settings: Enterovirus C, CVA24, HeLa R19, read-out: EC50 CV-A24
Compound `O=C(c1ccco1)N(Cc1ccc(S(F)(F)(F)(F)F)cc1)c1ccccc1` [Compound 19f, N-(4-(Pentafluorosulfaneyl)benzyl)-N-phenylfuran-2-carboxamide] has an EC50 of over 30 µM.

System: CV-B3
Experiment: microbe, parasite or virus in culture
Format: cell-based, coxsackievirus B3
Settings: not given
In the case of `O=C(c1ccco1)N(Cc1ccc(S(F)(F)(F)(F)F)cc1)c1ccccc1` [Compound 19f, N-(4-(Pentafluorosulfaneyl)benzyl)-N-phenylfuran-2-carboxamide], the “effect of the substitution on antiviral activity against CV-B3 (in words)” value is reported as “only marginally affected antiviral activity”.

Same assay, conditions: Enterovirus B, CVB3, HeLa R19, read-out: CV-B3 EC50 Average
Work on `O=C(c1ccco1)N(Cc1ccc(S(F)(F)(F)(F)F)cc1)c1ccccc1` [Compound 19f, N-(4-(Pentafluorosulfaneyl)benzyl)-N-phenylfuran-2-carboxamide] yielded an EC50 of 3.1 µM.

Same assay, conditions: Enterovirus B, CVB3, HeLa R19, read-out: CV-B3 Exp 1 EC50
`O=C(c1ccco1)N(Cc1ccc(S(F)(F)(F)(F)F)cc1)c1ccccc1` [Compound 19f, N-(4-(Pentafluorosulfaneyl)benzyl)-N-phenylfuran-2-carboxamide] gave an EC50 of 3.52 µM.

Same assay, conditions: Enterovirus B, CVB3, HeLa R19, read-out: CV-B3 Exp2 EC50
`O=C(c1ccco1)N(Cc1ccc(S(F)(F)(F)(F)F)cc1)c1ccccc1` [Compound 19f, N-(4-(Pentafluorosulfaneyl)benzyl)-N-phenylfuran-2-carboxamide] gave an EC50 of 2.68 µM.

Same assay, conditions: Enterovirus B, CVB3, HeLa R19, read-out: EC50 HelaR19 Average
Work on `O=C(c1ccco1)N(Cc1ccc(S(F)(F)(F)(F)F)cc1)c1ccccc1` [Compound 19f, N-(4-(Pentafluorosulfaneyl)benzyl)-N-phenylfuran-2-carboxamide] yielded an EC50 of 3.28 µM.

Same assay, conditions: Enterovirus B, CVB3, HeLa R19, read-out: Exp 1 EC50 HelaR19
Compound `O=C(c1ccco1)N(Cc1ccc(S(F)(F)(F)(F)F)cc1)c1ccccc1` [Compound 19f, N-(4-(Pentafluorosulfaneyl)benzyl)-N-phenylfuran-2-carboxamide] has an EC50 of 3.45 µM.

Same assay, conditions: Enterovirus B, CVB3, HeLa R19, read-out: Exp 2 EC50 HelaR19
`O=C(c1ccco1)N(Cc1ccc(S(F)(F)(F)(F)F)cc1)c1ccccc1` [Compound 19f, N-(4-(Pentafluorosulfaneyl)benzyl)-N-phenylfuran-2-carboxamide] gave an EC50 of 3.11 µM.

System: CV-B3
Experiment: microbe, parasite or virus in culture
Format: cell-based, coxsackievirus B3
Settings: Enterovirus B, CVB3, HAP1, read-out: EC50 Hap1 Average
For `O=C(c1ccco1)N(Cc1ccc(S(F)(F)(F)(F)F)cc1)c1ccccc1` [Compound 19f, N-(4-(Pentafluorosulfaneyl)benzyl)-N-phenylfuran-2-carboxamide], the EC50 was 2.1 µM.

Same assay, conditions: Enterovirus B, CVB3, HAP1, read-out: Exp 1 EC50 Hap1
`O=C(c1ccco1)N(Cc1ccc(S(F)(F)(F)(F)F)cc1)c1ccccc1` [Compound 19f, N-(4-(Pentafluorosulfaneyl)benzyl)-N-phenylfuran-2-carboxamide] gave an EC50 of 2.3 µM.

Same assay, conditions: Enterovirus B, CVB3, HAP1, read-out: Exp 2 EC50 Hap1
Work on `O=C(c1ccco1)N(Cc1ccc(S(F)(F)(F)(F)F)cc1)c1ccccc1` [Compound 19f, N-(4-(Pentafluorosulfaneyl)benzyl)-N-phenylfuran-2-carboxamide] yielded an EC50 of 1.9 µM.

System: HRV-A2
Experiment: microbe, parasite or virus in culture
Format: cell-based, human rhinovirus
Settings: Human rhinovirus sp., HRVA2, HeLa R19, read-out: EC50 HRV-A2
Compound `O=C(c1ccco1)N(Cc1ccc(S(F)(F)(F)(F)F)cc1)c1ccccc1` [Compound 19f, N-(4-(Pentafluorosulfaneyl)benzyl)-N-phenylfuran-2-carboxamide] has an EC50 of over 30 µM.

System: PV-1
Experiment: microbe, parasite or virus in culture
Format: cell-based, poliovirus 1
Settings: Enterovirus C, HeLa R19, read-out: EC50 PV-1
`O=C(c1ccco1)N(Cc1ccc(S(F)(F)(F)(F)F)cc1)c1ccccc1` [Compound 19f, N-(4-(Pentafluorosulfaneyl)benzyl)-N-phenylfuran-2-carboxamide] showed an EC50 of over 30 µM.

System: not listed separately
Experiment: in vitro
Settings: monkey, CC50
`O=C(c1ccco1)N(Cc1ccc(S(F)(F)(F)(F)F)cc1)c1ccccc1` [Compound 19f, N-(4-(Pentafluorosulfaneyl)benzyl)-N-phenylfuran-2-carboxamide] gave a CC50 of 31.9 ± 1.41 µM.

Same assay, conditions: monkey, CC50 BGM Average
`O=C(c1ccco1)N(Cc1ccc(S(F)(F)(F)(F)F)cc1)c1ccccc1` [Compound 19f, N-(4-(Pentafluorosulfaneyl)benzyl)-N-phenylfuran-2-carboxamide] showed a CC50 of 31.9 µM.

Same assay, conditions: monkey, Exp 1 CC50 BGM
`O=C(c1ccco1)N(Cc1ccc(S(F)(F)(F)(F)F)cc1)c1ccccc1` [Compound 19f, N-(4-(Pentafluorosulfaneyl)benzyl)-N-phenylfuran-2-carboxamide] showed a CC50 of 30.5 µM.

Same assay, conditions: monkey, Exp 2 CC50 BGM
Work on `O=C(c1ccco1)N(Cc1ccc(S(F)(F)(F)(F)F)cc1)c1ccccc1` [Compound 19f, N-(4-(Pentafluorosulfaneyl)benzyl)-N-phenylfuran-2-carboxamide] yielded a CC50 of 33.3 µM.

System: CV-B3
Experiment: microbe, parasite or virus in culture
Format: cell-based, coxsackievirus B3
Settings: Enterovirus B, CVB3, BGM, read-out: EC50 BGM Average
With `O=C(c1ccco1)N(Cc1ccc(S(F)(F)(F)(F)F)cc1)c1ccccc1` [Compound 19f, N-(4-(Pentafluorosulfaneyl)benzyl)-N-phenylfuran-2-carboxamide] the EC50 was 2.6 µM.

Same assay, conditions: Enterovirus B, CVB3, BGM, read-out: Exp 1 EC50 BGM
Work on `O=C(c1ccco1)N(Cc1ccc(S(F)(F)(F)(F)F)cc1)c1ccccc1` [Compound 19f, N-(4-(Pentafluorosulfaneyl)benzyl)-N-phenylfuran-2-carboxamide] yielded an EC50 of 2.22 µM.

Same assay, conditions: Enterovirus B, CVB3, BGM, read-out: Exp 2 EC50 BGM
Compound `O=C(c1ccco1)N(Cc1ccc(S(F)(F)(F)(F)F)cc1)c1ccccc1` [Compound 19f, N-(4-(Pentafluorosulfaneyl)benzyl)-N-phenylfuran-2-carboxamide] has an EC50 of 2.98 µM.

System: EV-D68
Experiment: microbe, parasite or virus in culture
Format: cell-based, enterovirus D68
Settings: Enterovirus D, EVD68, HeLa R19, read-out: EC50 Exp1
For `O=C(c1ccco1)N(Cc1ccc(S(F)(F)(F)(F)F)cc1)c1ccccc1` [Compound 19f, N-(4-(Pentafluorosulfaneyl)benzyl)-N-phenylfuran-2-carboxamide], the EC50 was 13.6 µM.

Same assay, conditions: Enterovirus D, EVD68, HeLa R19, read-out: EC50 Exp2
Compound `O=C(c1ccco1)N(Cc1ccc(S(F)(F)(F)(F)F)cc1)c1ccccc1` [Compound 19f, N-(4-(Pentafluorosulfaneyl)benzyl)-N-phenylfuran-2-carboxamide] has an EC50 of 15.3 µM.

System: EV-A71
Experiment: microbe, parasite or virus in culture
Format: cell-based, enterovirus A71
Settings: Enterovirus A, EVA71, HeLa R19, read-out: EC50 EV-A71
In the case of `O=C(c1ccco1)N(Cc1ccc(S(F)(F)(F)(F)F)cc1)c1ccccc1` [Compound 19f, N-(4-(Pentafluorosulfaneyl)benzyl)-N-phenylfuran-2-carboxamide], the EC50 is reported as 4.37 ± 0.5 µM.

Same assay, conditions: Enterovirus A, EVA71, HeLa R19, read-out: EC50 Exp1
With `O=C(c1ccco1)N(Cc1ccc(S(F)(F)(F)(F)F)cc1)c1ccccc1` [Compound 19f, N-(4-(Pentafluorosulfaneyl)benzyl)-N-phenylfuran-2-carboxamide] the EC50 was 3.87 µM.

Same assay, conditions: Enterovirus A, EVA71, HeLa R19, read-out: EC50 Exp2
`O=C(c1ccco1)N(Cc1ccc(S(F)(F)(F)(F)F)cc1)c1ccccc1` [Compound 19f, N-(4-(Pentafluorosulfaneyl)benzyl)-N-phenylfuran-2-carboxamide] showed an EC50 of 4.87 µM.

System: HRV-B14
Experiment: microbe, parasite or virus in culture
Format: cell-based, human rhinovirus
Settings: Human rhinovirus sp., HRVB14, HeLa R19, read-out: EC50 Exp1
For `O=C(c1ccco1)N(Cc1ccc(S(F)(F)(F)(F)F)cc1)c1ccccc1` [Compound 19f, N-(4-(Pentafluorosulfaneyl)benzyl)-N-phenylfuran-2-carboxamide], the EC50 was 4.68 µM.

Same assay, conditions: Human rhinovirus sp., HRVB14, HeLa R19, read-out: EC50 Exp2
In the case of `O=C(c1ccco1)N(Cc1ccc(S(F)(F)(F)(F)F)cc1)c1ccccc1` [Compound 19f, N-(4-(Pentafluorosulfaneyl)benzyl)-N-phenylfuran-2-carboxamide], the EC50 is reported as 5.76 µM.

Same assay, conditions: Human rhinovirus sp., HRVB14, HeLa R19, read-out: EC50 HRV-B14
Work on `O=C(c1ccco1)N(Cc1ccc(S(F)(F)(F)(F)F)cc1)c1ccccc1` [Compound 19f, N-(4-(Pentafluorosulfaneyl)benzyl)-N-phenylfuran-2-carboxamide] yielded an EC50 of 5.22 ± 0.54 µM.

System: not listed separately
Experiment: in vitro
Settings: human, CC50 Average
`O=C(c1ccco1)N(Cc1ccc(S(F)(F)(F)(F)F)cc1)c1ccccc1` [Compound 19f, N-(4-(Pentafluorosulfaneyl)benzyl)-N-phenylfuran-2-carboxamide] gave a CC50 of over 30 µM.

Same assay, conditions: human, CC50 HelaR19 Average
In the case of `O=C(c1ccco1)N(Cc1ccc(S(F)(F)(F)(F)F)cc1)c1ccccc1` [Compound 19f, N-(4-(Pentafluorosulfaneyl)benzyl)-N-phenylfuran-2-carboxamide], the CC50 is reported as 32 µM.

Same assay, conditions: human, Exp 1 CC50
`O=C(c1ccco1)N(Cc1ccc(S(F)(F)(F)(F)F)cc1)c1ccccc1` [Compound 19f, N-(4-(Pentafluorosulfaneyl)benzyl)-N-phenylfuran-2-carboxamide] showed a CC50 of over 30 µM.

Same assay, conditions: human, Exp 1 CC50 HelaR19
Work on `O=C(c1ccco1)N(Cc1ccc(S(F)(F)(F)(F)F)cc1)c1ccccc1` [Compound 19f, N-(4-(Pentafluorosulfaneyl)benzyl)-N-phenylfuran-2-carboxamide] yielded a CC50 of 30 µM.

Same assay, conditions: human, Exp2 CC50
`O=C(c1ccco1)N(Cc1ccc(S(F)(F)(F)(F)F)cc1)c1ccccc1` [Compound 19f, N-(4-(Pentafluorosulfaneyl)benzyl)-N-phenylfuran-2-carboxamide] showed a CC50 of over 30 µM.

Same assay, conditions: human, Exp 2 CC50 HelaR19
In the case of `O=C(c1ccco1)N(Cc1ccc(S(F)(F)(F)(F)F)cc1)c1ccccc1` [Compound 19f, N-(4-(Pentafluorosulfaneyl)benzyl)-N-phenylfuran-2-carboxamide], the CC50 is reported as 34 µM.

System: HeLa R19 cells
Experiment: not given
Settings: human
Compound `O=C(c1ccco1)N(Cc1ccc(S(F)(F)(F)(F)F)cc1)c1ccccc1` [Compound 19f, N-(4-(Pentafluorosulfaneyl)benzyl)-N-phenylfuran-2-carboxamide] has a CC50 of 32.9 ± 2 µM.

Same assay, conditions: human, monkey
With `O=C(c1ccco1)N(Cc1ccc(S(F)(F)(F)(F)F)cc1)c1ccccc1` [Compound 19f, N-(4-(Pentafluorosulfaneyl)benzyl)-N-phenylfuran-2-carboxamide] the “cytotoxicity (in words)” value was “cytotoxicity in a similar range as the parental compound 1”.

System: not listed separately
Experiment: in vitro
Settings: human, CC50 Hap1 Average
For `O=C(c1ccco1)N(Cc1ccc(S(F)(F)(F)(F)F)cc1)c1ccccc1` [Compound 19f, N-(4-(Pentafluorosulfaneyl)benzyl)-N-phenylfuran-2-carboxamide], the CC50 was 62.5 µM.

Same assay, conditions: human, Exp 1 CC50 Hap1
In the case of `O=C(c1ccco1)N(Cc1ccc(S(F)(F)(F)(F)F)cc1)c1ccccc1` [Compound 19f, N-(4-(Pentafluorosulfaneyl)benzyl)-N-phenylfuran-2-carboxamide], the CC50 is reported as 61 µM.

Same assay, conditions: human, Exp 2 CC50 Hap1
In the case of `O=C(c1ccco1)N(Cc1ccc(S(F)(F)(F)(F)F)cc1)c1ccccc1` [Compound 19f, N-(4-(Pentafluorosulfaneyl)benzyl)-N-phenylfuran-2-carboxamide], the CC50 is reported as 64.1 µM.
